Results as given in ChEMBL document CHEMBL1132349, “Lead generation using pharmacophore mapping and three-dimensional database searching: application to muscarinic M(3) receptor antagonists” (J Med Chem, 1999).

These compounds were tested against Muscarinic acetylcholine receptor M3 (Cavia porcellus, UniProt Q8VH26) (assay: The compound was tested for antagonistic activity against Muscarinic acetylcholine receptor M3 in guinea pig trachea). Details: read-out: pA2 (converted).
Format: functional

Muscarinic acetylcholine receptor M3, sequence (Q8VH26 whole entry): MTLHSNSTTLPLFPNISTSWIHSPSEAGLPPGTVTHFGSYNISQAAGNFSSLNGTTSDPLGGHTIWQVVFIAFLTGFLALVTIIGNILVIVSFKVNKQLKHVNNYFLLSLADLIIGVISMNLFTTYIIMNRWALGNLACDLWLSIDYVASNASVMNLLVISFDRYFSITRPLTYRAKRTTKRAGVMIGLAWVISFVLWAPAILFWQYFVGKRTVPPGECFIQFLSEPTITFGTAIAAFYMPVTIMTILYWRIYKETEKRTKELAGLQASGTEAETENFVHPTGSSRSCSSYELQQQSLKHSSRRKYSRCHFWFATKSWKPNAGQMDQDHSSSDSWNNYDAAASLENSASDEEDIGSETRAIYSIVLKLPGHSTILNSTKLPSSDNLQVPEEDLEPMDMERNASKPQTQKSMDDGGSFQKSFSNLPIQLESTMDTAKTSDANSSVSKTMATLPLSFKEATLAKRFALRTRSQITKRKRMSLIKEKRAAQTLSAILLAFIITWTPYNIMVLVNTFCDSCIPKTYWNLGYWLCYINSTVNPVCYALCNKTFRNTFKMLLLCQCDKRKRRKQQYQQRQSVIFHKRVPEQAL

Row | Kb [µM] | SMILES
1 | 0.214 | CCN(CC)CCOc1ccccc1C(=O)Cc1ccccc1
2 | 2.88 | O=C(Nc1ccccc1)OC1CCCCC1CN1CCOCC1 (stereo not drawn)
3 | 14.8 | CCCOc1ccccc1C(=O)NC1CCCCC1CN1CCCCC1 (stereo not drawn)
